“And” between values parts separate entries of the source, which are not always exact repeats. Equal entries are not always repeated.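 Briefly, cells in 96-well plates were exposed to five compound concentrations for 48 h, and endpoints were estimated by linear interpolation. GI50 is the concentration that inhibits growth by half. Definition used: TGI = concentration required for complete inhibition of growth.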
What was measured:
Experiment in all cases: NCI tumour cell line growth inhibition, 48 h
HOP-62 NSCLC = tested on: HOP-62 NSCLC
RPMI-8226 leukemia = tested on: RPMI-8226 leukemia
T-47D breast = tested on: T-47D breast
NCI-H460 lung = tested on: NCI-H460 lung
NCI-H226 lung = tested on: NCI-H226 lung
SNB-19 CNS = tested on: SNB-19 CNS
SF-295 CNS = tested on: SF-295 CNS
NCI/ADR-RES ovarian = tested on: NCI/ADR-RES ovarian
U251 CNS = tested on: U251 CNS
UACC-257 melanoma = tested on: UACC-257 melanoma
MALME-3M melanoma = tested on: MALME-3M melanoma
HCT-116 colon = tested on: HCT-116 colon
OVCAR-4 ovarian = tested on: OVCAR-4 ovarian
UO-31 renal = tested on: UO-31 renal
ACHN renal = tested on: ACHN renal
M14 melanoma = tested on: M14 melanoma
K-562 leukemia = tested on: K-562 leukemia
BT-549 breast = tested on: BT-549 breast
HL-60(TB) leukemia = tested on: HL-60(TB) leukemia
SK-MEL-28 melanoma = tested on: SK-MEL-28 melanoma
MDA-MB-435 = tested on: MDA-MB-435
TK-10 renal = tested on: TK-10 renal
NCI-H23 lung = tested on: NCI-H23 lung
UACC-62 melanoma = tested on: UACC-62 melanoma
SN12C renal = tested on: SN12C renal
SK-MEL-5 melanoma = tested on: SK-MEL-5 melanoma
KM12 colon = tested on: KM12 colon
DU-145 prostate = tested on: DU-145 prostate
SK-MEL-2 melanoma = tested on: SK-MEL-2 melanoma
MDA-MB-231 breast = tested on: MDA-MB-231 breast
MOLT-4 leukemia = tested on: MOLT-4 leukemia
HOP-92 NSCLC = tested on: HOP-92 NSCLC
HS 578T breast = tested on: HS 578T breast
MDA-N = tested on: MDA-N
HT29 colon = tested on: HT29 colon
LOX IMVI melanoma = tested on: LOX IMVI melanoma
A549 NSCLC = tested on: A549 NSCLC
786-0 renal = tested on: 786-0 renal
COLO 205 colon = tested on: COLO 205 colon
CAKI-1 renal = tested on: CAKI-1 renal
SW-620 colon = tested on: SW-620 colon
HCT-15 colon = tested on: HCT-15 colon
SR leukemia = tested on: SR leukemia
EKVX NSCLC = tested on: EKVX NSCLC
RXF 393 renal = tested on: RXF 393 renal
IGROV1 ovarian = tested on: IGROV1 ovarian
CCRF-CEM leukemia = tested on: CCRF-CEM leukemia
PC-3 prostate = tested on: PC-3 prostate
HCC-2998 colon = tested on: HCC-2998 colon
MCF7 breast = tested on: MCF7 breast
SNB-75 CNS = tested on: SNB-75 CNS
SK-OV-3 ovarian = tested on: SK-OV-3 ovarian
SF-539 CNS = tested on: SF-539 CNS
SF-268 CNS = tested on: SF-268 CNS
OVCAR-3 ovarian = tested on: OVCAR-3 ovarian
OVCAR-5 ovarian = tested on: OVCAR-5 ovarian
OVCAR-8 ovarian = tested on: OVCAR-8 ovarian
NCI-H522 lung = tested on: NCI-H522 lung
DMS 273 small cell lung = tested on: DMS 273 small cell lung
A498 renal = tested on: A498 renal
KM20L2 colon = tested on: KM20L2 colon
SNB-78 CNS = tested on: SNB-78 CNS
DLD-1 colon = tested on: DLD-1 colon
DMS 114 small cell lung = tested on: DMS 114 small cell lung
M19-MEL melanoma = tested on: M19-MEL melanoma

With `Cc1cc(C)c2c(=O)n(CC(O)CN(Cc3ccccc3)CC(O)Cn3sc4nc(C)cc(C)c4c3=O)sc2n1` (configuration not stated) the TGI (HOP-62 NSCLC) was 30.1 µM, the TGI (RPMI-8226 leukemia) was greater than 100 µM and the TGI (T-47D breast) was 41 µM. It also gave a TGI (NCI-H460 lung) of 39.3 µM, a TGI (NCI-H226 lung) of 33.5 µM and a TGI (SNB-19 CNS) of 34.7 µM. The TGI (SF-295 CNS) was 61.9 µM, the TGI (NCI/ADR-RES ovarian) was 67.2 µM and the TGI (U251 CNS) was 30.6 µM. For the same molecule, the TGI (UACC-257 melanoma) was 31.7 µM, the TGI (MALME-3M melanoma) was 27.4 µM and the TGI (HCT-116 colon) was 31.5 µM. It also gave a TGI (OVCAR-4 ovarian) of 32.4 µM, a TGI (UO-31 renal) of 31.6 µM and a TGI (ACHN renal) of 30.1 µM. The TGI (M14 melanoma) was 32.9 µM, the TGI (K-562 leukemia) was greater than 100 µM and the TGI (BT-549 breast) was 38.3 µM. It also gave a TGI (HL-60(TB) leukemia) greater than 100 µM, a TGI (SK-MEL-28 melanoma) of 74.1 µM and a TGI (MDA-MB-435) of 31.4 µM. It also gave a TGI (TK-10 renal) of 31.5 µM, a TGI (NCI-H23 lung) of 33.4 µM and a TGI (UACC-62 melanoma) of 30.6 µM. For the same molecule, the TGI (SN12C renal) was 32.7 µM, the TGI (SK-MEL-5 melanoma) was 30.1 µM and the TGI (KM12 colon) was 31.4 µM. It also gave a TGI (DU-145 prostate) of 31.7 µM, a TGI (SK-MEL-2 melanoma) of 33.1 µM and a TGI (MDA-MB-231 breast) of 31.6 µM. For the same molecule, the TGI (MOLT-4 leukemia) was greater than 100 µM, the TGI (HOP-92 NSCLC) was 31.7 µM and the TGI (HS 578T breast) was 40.4 µM. The TGI (MDA-N) was 32.8 µM, the TGI (HT29 colon) was 37.4 µM and the TGI (LOX IMVI melanoma) was 33.9 µM. It also gave a TGI (A549 NSCLC) of 40.7 µM, a TGI (786-0 renal) of 27.7 µM and a TGI (COLO 205 colon) of 21.3 µM. The TGI (CAKI-1 renal) was 33.4 µM, the TGI (SW-620 colon) was greater than 100 µM and the TGI (HCT-15 colon) was 34.4 µM. The TGI (SR leukemia) was greater than 100 µM, the TGI (EKVX NSCLC) was 44.5 µM and the TGI (RXF 393 renal) was 33.6 µM. It also gave a TGI (IGROV1 ovarian) of 31.7 µM, a TGI (CCRF-CEM leukemia) greater than 100 µM and a TGI (PC-3 prostate) of 30.4 µM. It also gave a TGI (HCC-2998 colon) of 35.7 µM, a TGI (MCF7 breast) of 32.1 µM and a TGI (SNB-75 CNS) of 28.9 µM. The TGI (SK-OV-3 ovarian) was 73.6 µM, the TGI (SF-539 CNS) was 32 µM and the TGI (SF-268 CNS) was 30.9 µM. For the same molecule, the TGI (OVCAR-3 ovarian) was 29.8 µM, the TGI (OVCAR-5 ovarian) was 36.4 µM and the TGI (OVCAR-8 ovarian) was 34.5 µM. It also gave a TGI (NCI-H522 lung) of 22 µM.

Work on `COc1cc2c(c(OC)c1OC)-c1ccc(SC)c(=O)cc1[C@@H](NC(=O)c1cccc([N+](=O)[O-])c1)CC2` yielded a TGI (HOP-62 NSCLC) of 14.9 µM, a GI50 (SNB-19 CNS) of 0.0268 µM and a TGI (DMS 273 small cell lung) of 70.2 µM. For the same molecule, the TGI (U251 CNS) was 0.0577 µM, the TGI (UACC-257 melanoma) was 33.9 µM and the TGI (A498 renal) was 0.0479 µM. The TGI (HCT-116 colon) was 0.0439 µM and 0.117 µM, the TGI (OVCAR-4 ovarian) was greater than 100 µM and the GI50 (UO-31 renal) was 0.0276 µM. The TGI (UO-31 renal) was greater than 100 µM, the TGI (ACHN renal) was greater than 100 µM and the TGI (K-562 leukemia) was greater than 100 µM. It also gave a GI50 (SK-MEL-28 melanoma) of 10.5 µM, a TGI (SK-MEL-28 melanoma) of 82.3 µM and a TGI (KM20L2 colon) of 0.0358 µM. The TGI (TK-10 renal) was 55.3 µM, the TGI (UACC-62 melanoma) was 36.4 µM and the TGI (SN12C renal) was 21.6 µM. For the same molecule, the TGI (SK-MEL-5 melanoma) was 0.0467 µM, the TGI (KM12 colon) was greater than 100 µM and the TGI (MOLT-4 leukemia) was greater than 100 µM. For the same molecule, the TGI (SNB-78 CNS) was greater than 100 µM, the TGI (DLD-1 colon) was greater than 100 µM and the TGI (HT29 colon) was 0.0708 µM. For the same molecule, the GI50 (A549 NSCLC) was 0.033 µM, the TGI (A549 NSCLC) was 23.1 µM and the TGI (786-0 renal) was 11.8 µM. For the same molecule, the TGI (COLO 205 colon) was 0.0343 µM, the TGI (SW-620 colon) was greater than 100 µM and the GI50 (HCT-15 colon) was 0.027 µM. The TGI (HCT-15 colon) was greater than 100 µM, the GI50 (SR leukemia) was 0.00851 µM and the TGI (SR leukemia) was 0.0732 µM. For the same molecule, the TGI (EKVX NSCLC) was 27.3 µM, the TGI (IGROV1 ovarian) was 35.6 µM and the TGI (CCRF-CEM leukemia) was greater than 100 µM. For the same molecule, the GI50 (DMS 114 small cell lung) was 0.0165 µM, the TGI (DMS 114 small cell lung) was 0.0365 µM and the TGI (HCC-2998 colon) was 0.0497 µM. It also gave a TGI (M19-MEL melanoma) greater than 100 µM, a TGI (SK-OV-3 ovarian) of 0.0638 µM and a TGI (SF-539 CNS) of 0.0377 µM. The TGI (SF-268 CNS) was 16.5 µM, the TGI (OVCAR-3 ovarian) was 0.0404 µM and the TGI (OVCAR-5 ovarian) was greater than 100 µM.

Work on `CCOC(=O)C1=C(C(=O)OCC)SC2(S1)C(C(=O)OCC)=C(C(=O)OCC)Sc1c2ssc1=O` yielded a TGI (HOP-62 NSCLC) of 3.21 µM, a TGI (RPMI-8226 leukemia) of 4.56 µM and a TGI (T-47D breast) of 4.62 µM. It also gave a TGI (NCI-H460 lung) of 21.9 µM, a TGI (NCI-H226 lung) of 42.2 µM and a TGI (SNB-19 CNS) of 15.4 µM. It also gave a TGI (SF-295 CNS) of 28.8 µM, a TGI (NCI/ADR-RES ovarian) of 7.64 µM and a TGI (U251 CNS) of 3.95 µM. It also gave a TGI (UACC-257 melanoma) of 3.1 µM, a TGI (A498 renal) of 12.8 µM and a TGI (MALME-3M melanoma) of 4.19 µM. It also gave a TGI (HCT-116 colon) of 2.3 µM, a TGI (OVCAR-4 ovarian) of 2.68 µM and a TGI (UO-31 renal) of 3.25 µM. For the same molecule, the TGI (ACHN renal) was 3.11 µM, the TGI (M14 melanoma) was 4.94 µM and the TGI (K-562 leukemia) was 3.06 µM. It also gave a TGI (BT-549 breast) of 4.51 µM, a TGI (HL-60(TB) leukemia) of 1.06 µM and a TGI (SK-MEL-28 melanoma) of 3.93 µM. For the same molecule, the TGI (MDA-MB-435) was 3.93 µM, the TGI (TK-10 renal) was 3.16 µM and the TGI (NCI-H23 lung) was 4.02 µM. It also gave a TGI (UACC-62 melanoma) of 3.68 µM, a TGI (SN12C renal) of 2.48 µM and a TGI (SK-MEL-5 melanoma) of 5.29 µM. For the same molecule, the TGI (KM12 colon) was 10.3 µM, the TGI (DU-145 prostate) was 2.2 µM and the TGI (SK-MEL-2 melanoma) was 5.5 µM. For the same molecule, the TGI (MDA-MB-231 breast) was 3.88 µM, the TGI (MOLT-4 leukemia) was 2.14 µM and the TGI (HOP-92 NSCLC) was 2.81 µM. The TGI (HS 578T breast) was 5.41 µM, the TGI (MDA-N) was 4.36 µM and the TGI (HT29 colon) was 3.75 µM. The TGI (LOX IMVI melanoma) was 1.42 µM, the TGI (A549 NSCLC) was 5.38 µM and the TGI (786-0 renal) was 2.13 µM. For the same molecule, the TGI (COLO 205 colon) was 5.15 µM, the TGI (CAKI-1 renal) was 5.15 µM and the TGI (SW-620 colon) was 1.89 µM. The TGI (HCT-15 colon) was 2.72 µM, the TGI (SR leukemia) was greater than 100 µM and the TGI (EKVX NSCLC) was 5.78 µM. It also gave a TGI (RXF 393 renal) of 2.47 µM, a TGI (IGROV1 ovarian) of 2.57 µM and a TGI (CCRF-CEM leukemia) of 2.06 µM. For the same molecule, the TGI (PC-3 prostate) was 2.96 µM, the TGI (HCC-2998 colon) was 5.89 µM and the TGI (MCF7 breast) was 3.5 µM. It also gave a TGI (SNB-75 CNS) of 3.94 µM, a TGI (SK-OV-3 ovarian) of 10.9 µM and a TGI (SF-539 CNS) of 2.4 µM. For the same molecule, the TGI (SF-268 CNS) was 4.19 µM, the TGI (OVCAR-3 ovarian) was 3.16 µM and the TGI (OVCAR-5 ovarian) was 12.4 µM. The TGI (OVCAR-8 ovarian) was 3.31 µM and the TGI (NCI-H522 lung) was 4.46 µM.

— PubChem BioAssay (NCI)
